Source: ChEMBL document CHEMBL4619774 (J Med Chem, 2020)

How the values were obtained:
[1] = Tmax in C57BL/6 mouse at 100 mg/kg, po by LC-MS/MS analysis; format: ADME, organism-based; conditions: in vivo
[2] = Oral bioavailability in beagle dog at 75 mg/kg via gavage by HPLC-MS/MS analysis; format: ADME, organism-based, Canis lupus familiaris; conditions: in vivo
Coagulation factor IX = Coagulation factor IX (Homo sapiens, UniProt P00740); format: single protein
Coagulation factor X = Coagulation factor X (Homo sapiens, UniProt P00742); format: single protein
Coagulation factor X, sequence (P00742 41-179 limits assumed): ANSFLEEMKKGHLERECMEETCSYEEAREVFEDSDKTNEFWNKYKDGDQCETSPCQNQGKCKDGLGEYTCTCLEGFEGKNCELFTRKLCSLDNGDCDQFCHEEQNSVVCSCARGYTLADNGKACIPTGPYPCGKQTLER
Coagulation factor X, sequence (P00742 235-488 limits assumed): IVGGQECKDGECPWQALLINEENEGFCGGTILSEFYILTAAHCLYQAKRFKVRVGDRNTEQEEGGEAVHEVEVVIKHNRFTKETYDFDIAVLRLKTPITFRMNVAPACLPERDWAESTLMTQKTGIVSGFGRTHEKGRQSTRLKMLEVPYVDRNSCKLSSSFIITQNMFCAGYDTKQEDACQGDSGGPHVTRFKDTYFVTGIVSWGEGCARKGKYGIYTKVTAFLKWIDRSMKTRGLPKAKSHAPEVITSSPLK

[3] = Oral bioavailability in beagle dog at 10 mg/kg via gavage by HPLC-MS/MS analysis; format: ADME, organism-based, Canis lupus familiaris; conditions: in vivo
[4] = target: Tissue-type plasminogen activator (Homo sapiens, UniProt P00750); format: single protein
Tissue-type plasminogen activator, sequence (P00750 whole entry, the tested form may be a part): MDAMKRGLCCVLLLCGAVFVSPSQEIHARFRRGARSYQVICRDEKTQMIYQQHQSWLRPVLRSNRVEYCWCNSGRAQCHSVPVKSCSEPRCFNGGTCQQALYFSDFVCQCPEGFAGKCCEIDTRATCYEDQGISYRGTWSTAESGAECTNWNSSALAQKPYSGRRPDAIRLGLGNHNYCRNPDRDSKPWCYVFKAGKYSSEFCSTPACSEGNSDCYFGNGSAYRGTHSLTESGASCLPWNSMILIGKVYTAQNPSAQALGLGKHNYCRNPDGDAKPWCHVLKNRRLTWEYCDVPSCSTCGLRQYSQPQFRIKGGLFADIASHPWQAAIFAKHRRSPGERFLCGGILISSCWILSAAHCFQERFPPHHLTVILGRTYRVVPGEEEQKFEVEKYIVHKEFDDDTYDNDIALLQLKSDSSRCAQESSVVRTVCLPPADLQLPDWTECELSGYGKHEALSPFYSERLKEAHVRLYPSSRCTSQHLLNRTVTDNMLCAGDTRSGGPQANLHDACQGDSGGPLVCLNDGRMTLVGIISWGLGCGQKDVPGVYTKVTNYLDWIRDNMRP

Coagulation factor XI [5] = target: T1, Coagulation factor XI (Homo sapiens, UniProt P03951); assay: Inhibition of […] human plasma F11a catalytic domain expressed in Escherichia coli strain BL21(DE3) using D-Leu-Pro-Arg*Rh110-D-Pro as substrate preincubated for 60 mins followed by substrate addition and measured after 60 mins by fluorescence assay
T1 sequence (P03951 19-387 limits assumed): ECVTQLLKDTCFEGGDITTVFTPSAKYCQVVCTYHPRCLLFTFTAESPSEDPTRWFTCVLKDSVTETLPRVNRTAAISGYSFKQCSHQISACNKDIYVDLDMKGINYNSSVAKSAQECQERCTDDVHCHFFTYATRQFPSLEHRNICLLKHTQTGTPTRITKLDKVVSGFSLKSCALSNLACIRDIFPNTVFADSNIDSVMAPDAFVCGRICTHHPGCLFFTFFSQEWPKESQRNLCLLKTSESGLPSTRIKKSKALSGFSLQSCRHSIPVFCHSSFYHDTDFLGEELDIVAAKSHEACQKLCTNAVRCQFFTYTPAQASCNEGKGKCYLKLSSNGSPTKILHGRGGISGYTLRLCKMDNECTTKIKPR
T1 sequence (P03951 388-625 limits assumed): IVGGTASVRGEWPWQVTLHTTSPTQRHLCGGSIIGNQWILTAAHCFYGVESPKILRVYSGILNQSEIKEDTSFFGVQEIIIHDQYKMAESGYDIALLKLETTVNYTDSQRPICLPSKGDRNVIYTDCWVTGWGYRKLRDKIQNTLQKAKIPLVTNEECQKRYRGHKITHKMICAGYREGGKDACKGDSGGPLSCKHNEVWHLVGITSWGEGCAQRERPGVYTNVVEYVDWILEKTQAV

[6] = Oral bioavailability in Sprague-Dawley rat at 30 mg/kg via gavage by HPLC-MS/MS analysis; format: ADME, organism-based; conditions: in vivo
[7] = target: Prostaglandin G/H synthase 1 (Homo sapiens, UniProt P23219); assay: Inhibition of COX1 (unknown origin)
Prostaglandin G/H synthase 1, sequence (P23219 whole entry): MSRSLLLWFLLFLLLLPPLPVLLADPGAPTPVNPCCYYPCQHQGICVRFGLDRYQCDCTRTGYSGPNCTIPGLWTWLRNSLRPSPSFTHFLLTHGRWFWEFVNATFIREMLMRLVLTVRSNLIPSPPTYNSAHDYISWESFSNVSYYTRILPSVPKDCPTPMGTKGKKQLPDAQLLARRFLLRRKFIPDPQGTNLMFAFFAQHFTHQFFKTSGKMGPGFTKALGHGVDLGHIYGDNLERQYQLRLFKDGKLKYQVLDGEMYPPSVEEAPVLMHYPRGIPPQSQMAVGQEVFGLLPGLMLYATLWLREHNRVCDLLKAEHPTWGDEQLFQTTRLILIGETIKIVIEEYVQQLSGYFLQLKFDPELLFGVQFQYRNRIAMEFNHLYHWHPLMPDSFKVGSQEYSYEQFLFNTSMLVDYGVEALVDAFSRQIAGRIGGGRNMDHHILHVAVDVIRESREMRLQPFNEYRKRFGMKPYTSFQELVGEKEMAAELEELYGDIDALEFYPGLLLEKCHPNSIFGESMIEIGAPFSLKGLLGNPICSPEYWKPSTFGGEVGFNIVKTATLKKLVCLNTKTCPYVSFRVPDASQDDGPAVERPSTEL

Plasma [8] = assay: Effect on coagulation in human plasma assessed as concentration required to double the prothrombin time by thromboplastin-DS reagent based automated coagulometric method; format: ADME, cell-free
[9] = Oral bioavailability in C57BL/6 mouse at 3 mg/kg by LC-MS/MS analysis; format: ADME, organism-based; conditions: in vivo
[10] = Dose normalized Cmax in C57BL/6 mouse at 0.4 mg/kg, iv bolus injection or 3 mg/kg, po by LC-MS/MS analysis; format: ADME, organism-based; conditions: in vivo
[11] = Volume of distribution at steady state in C57BL/6 mouse at 0.4 mg/kg, iv bolus injection or 3 mg/kg, po by LC-MS/MS analysis; format: ADME, organism-based; conditions: in vivo, read-out: Vdss
[12] = Terminal half life in C57BL/6 mouse at 0.4 mg/kg, iv bolus injection or 3 mg/kg, po by LC-MS/MS analysis; format: ADME, organism-based; conditions: in vivo, read-out: beta t1/2 (converted)
[13] = target: Urokinase-type plasminogen activator (Homo sapiens, UniProt P00749); format: single protein
[14] = Dose normalized AUC (0 to t) in Sprague-Dawley rat at 100 mg/kg, po via gavage by HPLC-MS/MS analysis; format: ADME, organism-based; conditions: in vivo
[15] = Dose normalized Cmax in C57BL/6 mouse at 100 mg/kg, po by LC-MS/MS analysis; format: ADME, organism-based; conditions: in vivo
[16] = Dose normalized AUC (0 to t) in Sprague-Dawley rat at 3 mg/kg, po via gavage by HPLC-MS/MS analysis; format: ADME, organism-based; conditions: in vivo
[17] = Apparent permeability across apical to basolateral side in MDCK-MDR1 cells; format: ADME, cell-based, Canis lupus familiaris; conditions: dog
[18] = Dose normalized AUC (0 to t) in beagle dog at 10 mg/kg, po via gavage by HPLC-MS/MS analysis; format: ADME, organism-based, Canis lupus familiaris; conditions: in vivo
[19] = Efflux ratio of apparent permeability from basolateral to apical side over apical to basolateral side in MDCK-MDR1 cells; format: ADME, cell-based, Canis lupus familiaris; conditions: dog
Bile salt export pump = Bile salt export pump (Homo sapiens, UniProt O95342); assay: Inhibition of BSEP (unknown origin)
Bile salt export pump, sequence (O95342 whole entry): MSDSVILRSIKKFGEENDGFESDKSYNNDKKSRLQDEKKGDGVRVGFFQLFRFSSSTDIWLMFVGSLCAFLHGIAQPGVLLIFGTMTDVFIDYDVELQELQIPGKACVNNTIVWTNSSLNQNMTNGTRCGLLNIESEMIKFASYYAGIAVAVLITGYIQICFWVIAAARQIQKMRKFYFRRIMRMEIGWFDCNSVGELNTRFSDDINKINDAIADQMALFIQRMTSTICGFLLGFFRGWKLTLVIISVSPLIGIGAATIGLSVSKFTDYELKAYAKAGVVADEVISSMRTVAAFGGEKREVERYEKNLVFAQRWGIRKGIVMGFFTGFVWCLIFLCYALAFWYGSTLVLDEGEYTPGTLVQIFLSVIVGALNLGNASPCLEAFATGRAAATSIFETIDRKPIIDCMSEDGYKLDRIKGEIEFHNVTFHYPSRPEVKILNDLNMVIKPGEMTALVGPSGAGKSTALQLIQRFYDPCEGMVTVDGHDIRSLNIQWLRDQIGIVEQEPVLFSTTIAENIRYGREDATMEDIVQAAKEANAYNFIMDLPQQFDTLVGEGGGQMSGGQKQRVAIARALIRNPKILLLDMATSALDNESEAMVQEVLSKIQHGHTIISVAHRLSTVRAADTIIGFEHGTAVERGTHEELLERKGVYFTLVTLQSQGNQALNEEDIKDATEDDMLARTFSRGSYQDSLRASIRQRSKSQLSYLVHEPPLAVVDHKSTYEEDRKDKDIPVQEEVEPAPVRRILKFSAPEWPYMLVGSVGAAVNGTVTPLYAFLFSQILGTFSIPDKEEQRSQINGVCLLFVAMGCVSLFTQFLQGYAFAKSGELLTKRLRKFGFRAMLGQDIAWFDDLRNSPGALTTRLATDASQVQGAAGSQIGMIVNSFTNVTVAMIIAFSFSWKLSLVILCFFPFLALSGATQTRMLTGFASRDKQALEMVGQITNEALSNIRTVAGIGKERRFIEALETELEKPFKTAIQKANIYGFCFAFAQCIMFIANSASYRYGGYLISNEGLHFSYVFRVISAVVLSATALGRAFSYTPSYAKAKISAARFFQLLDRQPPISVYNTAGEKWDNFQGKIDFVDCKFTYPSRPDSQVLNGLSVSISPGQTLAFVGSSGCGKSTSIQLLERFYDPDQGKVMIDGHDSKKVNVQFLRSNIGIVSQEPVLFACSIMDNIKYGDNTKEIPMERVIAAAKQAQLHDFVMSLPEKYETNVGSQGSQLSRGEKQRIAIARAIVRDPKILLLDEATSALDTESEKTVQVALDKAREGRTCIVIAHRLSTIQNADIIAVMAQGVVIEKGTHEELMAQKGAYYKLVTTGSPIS

physchem = conditions: buffer, pH 7.4
[20] = Half life in Sprague-Dawley rat at 1 mg/kg, iv administered as bolus dose by HPLC-MS/MS analysis; format: ADME, organism-based; conditions: in vivo
Plasminogen = Plasminogen (Homo sapiens, UniProt P00747); format: single protein
Plasminogen, sequence (P00747 97-580 limits assumed): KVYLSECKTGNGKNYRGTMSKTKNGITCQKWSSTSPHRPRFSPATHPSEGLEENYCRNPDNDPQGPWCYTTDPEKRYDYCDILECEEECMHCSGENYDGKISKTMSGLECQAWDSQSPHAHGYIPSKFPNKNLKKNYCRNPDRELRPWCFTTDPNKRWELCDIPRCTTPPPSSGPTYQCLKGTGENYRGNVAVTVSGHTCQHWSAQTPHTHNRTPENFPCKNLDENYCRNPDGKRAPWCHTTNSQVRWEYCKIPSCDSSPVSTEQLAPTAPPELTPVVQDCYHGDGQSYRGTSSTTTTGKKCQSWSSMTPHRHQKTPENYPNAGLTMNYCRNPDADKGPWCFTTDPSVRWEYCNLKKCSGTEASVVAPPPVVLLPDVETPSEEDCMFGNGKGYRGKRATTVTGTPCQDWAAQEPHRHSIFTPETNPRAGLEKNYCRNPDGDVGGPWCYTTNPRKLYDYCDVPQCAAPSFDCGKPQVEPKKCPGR
Plasminogen, sequence (P00747 581-810 limits assumed): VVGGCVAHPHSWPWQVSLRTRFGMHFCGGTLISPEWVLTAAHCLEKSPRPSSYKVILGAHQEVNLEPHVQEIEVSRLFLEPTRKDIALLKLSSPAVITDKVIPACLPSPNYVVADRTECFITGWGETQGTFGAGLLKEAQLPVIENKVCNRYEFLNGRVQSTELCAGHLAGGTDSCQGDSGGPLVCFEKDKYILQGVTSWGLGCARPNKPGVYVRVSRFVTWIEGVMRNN

[21] = Dose normalized AUC in C57BL/6 mouse at 3 mg/kg, po by LC-MS/MS analysis; format: ADME, organism-based; conditions: in vivo
[22] = Dose normalized AUC in C57BL/6 mouse at 1 mg/kg, iv by LC-MS/MS analysis; format: ADME, organism-based; conditions: in vivo
Prothrombin = Prothrombin (Homo sapiens, UniProt P00734); format: single protein
[23] = AUC (0 to t) in beagle dog at 1 mg/kg, iv by HPLC-MS/MS analysis; format: ADME, organism-based, Canis lupus familiaris; conditions: in vivo
[24] = Dose normalized Cmax in Sprague-Dawley rat at 3 mg/kg, po via gavage by HPLC-MS/MS analysis; format: ADME, organism-based; conditions: in vivo
[25] = Dose normalized Cmax in Sprague-Dawley rat at 100 mg/kg, po via gavage by HPLC-MS/MS analysis; format: ADME, organism-based; conditions: in vivo
[26] = target: T2, Peroxisome proliferator-activated receptor gamma (Homo sapiens) (UniProt P37231); assay: Binding affinity to PPARgamma (unknown origin) at 10 uM
T2 sequence (whole entry): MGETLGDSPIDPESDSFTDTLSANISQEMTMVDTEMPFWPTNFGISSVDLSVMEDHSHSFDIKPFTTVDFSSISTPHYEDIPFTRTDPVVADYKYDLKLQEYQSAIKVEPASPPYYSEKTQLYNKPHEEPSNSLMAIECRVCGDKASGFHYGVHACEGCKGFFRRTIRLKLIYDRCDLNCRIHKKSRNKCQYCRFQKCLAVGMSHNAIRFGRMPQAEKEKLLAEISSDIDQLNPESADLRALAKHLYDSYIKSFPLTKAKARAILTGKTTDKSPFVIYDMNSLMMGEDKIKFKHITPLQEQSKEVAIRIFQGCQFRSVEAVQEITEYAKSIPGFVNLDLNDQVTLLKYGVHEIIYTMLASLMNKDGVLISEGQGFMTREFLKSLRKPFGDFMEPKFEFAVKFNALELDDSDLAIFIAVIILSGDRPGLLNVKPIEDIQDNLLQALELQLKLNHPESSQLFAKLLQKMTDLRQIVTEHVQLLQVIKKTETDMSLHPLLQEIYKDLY

[27] = Dose normalized AUC (0 to t) in Sprague-Dawley rat at 30 mg/kg, po via gavage by HPLC-MS/MS analysis; format: ADME, organism-based; conditions: in vivo
Coagulation factor XI [28] = target: T1, Coagulation factor XI; assay: Inhibition of human F11a using D-Leu-Pro-Arg*Rh110-D-Pro as substrate preincubated for 60 mins followed by substrate addition and measured after 60 mins by fluorescence assay
Plasma [29] = assay: Anticoagulant activity in human plasma assessed as concentration required to double the activated partial thromboplastin time incubated for 3 mins followed by calcium chloride addition by aPTT-s reagent based automated coagulometric method; format: functional
[30] = Clearance in beagle dog at 1 mg/kg, iv administered as bolus dose by HPLC-MS/MS analysis; format: ADME, organism-based, Canis lupus familiaris; conditions: in vivo
[31] = Oral bioavailability in Sprague-Dawley rat at 100 via gavage mg/kg by HPLC-MS/MS analysis; format: ADME, organism-based; conditions: in vivo, 100 mg/kg
[32] = Half life in beagle dog at 1 mg/kg, iv by HPLC-MS/MS analysis; format: ADME, organism-based, Canis lupus familiaris; conditions: in vivo
[33] = Tmax in C57BL/6 mouse at 0.4 mg/kg, iv bolus injection or 3 mg/kg, po by LC-MS/MS analysis; format: ADME, organism-based; conditions: in vivo

Coagulation factor IX, sequence (P00740 47-191 limits assumed): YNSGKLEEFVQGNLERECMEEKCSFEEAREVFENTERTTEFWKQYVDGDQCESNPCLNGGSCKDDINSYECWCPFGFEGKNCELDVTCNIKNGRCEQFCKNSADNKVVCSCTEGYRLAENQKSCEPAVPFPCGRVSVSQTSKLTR
Coagulation factor IX, sequence (P00740 227-461 limits assumed): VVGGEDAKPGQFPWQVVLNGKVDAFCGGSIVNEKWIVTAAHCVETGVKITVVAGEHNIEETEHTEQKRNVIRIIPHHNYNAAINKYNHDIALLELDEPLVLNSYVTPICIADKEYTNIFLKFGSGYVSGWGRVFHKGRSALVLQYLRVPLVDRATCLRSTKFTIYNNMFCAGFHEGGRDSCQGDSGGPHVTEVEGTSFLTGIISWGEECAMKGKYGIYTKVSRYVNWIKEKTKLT

Compound: CC(C)c1cc(-c2ccc3c(c2)[C@H](N)CO3)cc([C@H](O)Cn2ccc3cccc(C(=O)O)c32)c1
- Tmax [1]: 4 h
- bioavailability [2]: 21%
- IC50 (Coagulation factor IX): 1.92 µM
- IC50 (Coagulation factor X): 1.05 µM
- bioavailability [3]: 5%
- IC50 [4]: 0.25 µM
- IC50 (Coagulation factor XI [5]): 0.01 µM
- bioavailability [6]: 19%
- IC50 [7]: 4.3 µM
- 2PT (Plasma [8]): 28.7 µM
- bioavailability [9]: 16%
- Cmax/dose [10]: 494 nM
- Vd [11]: 0.57 L/kg
- half-life [12]: 3.73 h
- IC50 [13]: 0.17 µM
- AUCt/dose [14]: 1770 nM·h
- Cmax/dose [15]: 26795 nM
- AUCt/dose [16]: 382 nM·h
- Papp A→B [17]: 0.4 ×10⁻⁶ cm/s
- AUCt/dose [18]: 560 nM·h
- efflux ratio [19]: 21.5
- IC50 (Bile salt export pump): 28 µM
- logD (physchem): 2.2
- half-life [20]: 6.4 h
- IC50 (Plasminogen): 1.89 µM
- AUC/dose [21]: 1297 nM·h
- AUC/dose [22]: 3264 nM·h
- IC50 (Prothrombin): 2.57 µM
- AUC(0-t) [23]: 10.7 µM·h
- Cmax/dose [24]: 77 nM
- Cmax/dose [25]: 323 nM
- Activity [26]: 65%
- AUCt/dose [27]: 621 nM·h
- IC50 (Coagulation factor XI [28]): 0.0004 µM
- 2aPTT (Plasma [29]): 1.3 µM
- clearance [30]: 4.4 mL/min/kg
- bioavailability [31]: 45%
- half-life [32]: 2.8 h
- Tmax [33]: 1 h
